Experiment: xn = mol fraction of the nth substance listed
Details: 101 kPa

CCCCCC[n+]1ccn(C)c1.F[B-](F)(F)F + CC(C)O
viscosity [mPa·s]
Details | x2 = 0 | x2 = 0.1493 | x2 = 0.2289 | x2 = 0.2992 | x2 = 0.3752 | x2 = 0.4942 | x2 = 0.5845 | x2 = 0.7067 | x2 = 0.762 | x2 = 0.9165
293.15 K | 230 | 113 | 78 | 57.1 | 41 | 24.9 | 16.8 | 10.05 | 7.82 | –
303.15 K | 130 | – | 48.2 | 36.1 | – | 16.9 | – | – | – | 2.65
313.15 K | 78 | 42.6 | 31.7 | – | 18.8 | 12.2 | 8.53 | 5.15 | – | 1.96
323.15 K | – | 28.1 | – | – | 14.6 | 9.3 | 6.62 | 3.95 | 3.04 | 1.5
333.15 K | – | – | 16.3 | 13.2 | – | 7.04 | 5.06 | 3.05 | – | 1.02

CC(C)O + CCCCCC[n+]1ccn(C)c1.F[B-](F)(F)F
x1 = 1
Details | viscosity [mPa·s]
293.15 K | 2.36
303.15 K | 1.77
313.15 K | 1.33
323.15 K | 1.01

Reference: a compilation of properties of binary mixtures (doi:10.1016/j.molliq.2012.02.004)
